Laboratory results published in patent US20240150423A1, “GLP-1 ANALOGUE-MODIFIED DIMERS WITH DIFFERENT CONFIGURATIONS, PREPARATION METHOD THEREOF, AND APPLICATION THEREOF IN TREATMENT OF TYPE II DIABETES” (Nanjing Finepeptide Biopharmaceutical Co.,Ltd, priority 2019, published 2024).
Positions of bridges follow the written chain, without caps; N, C: chain ends. Non-standard residues stand in square brackets, D forms with d. Chains are numbered I, II in the order given. No end group written: not given here. bAib = not defined here; βAla = NCCC(=O)O

These substances were tested on Normal Kunming (KM) mice (assay: multiple OGTT (mOGTT): hypoglycemic duration after a single administration). Conditions: single injection at the same dose (1.126 nmol), subcutaneous.
Type: in vivo
Description: • 1. Methods: Normal Kunming (KM) mice (purchased from Guangdong Animal Center) were used for oral glucose tolerance test (OGTT) to obtain the hypoglycemic activity and durability of drug. […] The blood glucose meter and blood glucose test paper were from Bayer […]. The average blood glucose of each group was used as an evaluation standard: When the average blood glucose of experimental group was higher than that of the NaCl control group for two times, the measurement stopped and the hypoglycemic period compared to the blank control group was the effective duration. • 2. Results • 2.1 single OGTTs: after a single administration, the mice were orally administered glucose once and measured the blood glucose from the tail blood at 0, 10, 20, 40, 60 and 120 min. […] The duration of each monomer group was about 1⁄2-1⁄4 of the duration of its corresponding dimer group. […] Therefore, the 2G3 peptide was selected for treating type II diabetes (T2D) in vivo and subsequent experiments.

Question: How did the “Hypoglycemic duration” value turn out when “2G2 series 8: disulfide-linked homodimer of monomer SEQ ID NO: 8 (HAEGTFTSDVCSYLEGQAAXEFIAWLVRGRG; not fully specified; disulfide-linked homodimer; Sequence is synthesized; (20)..(20) Xaa is Xaa is 26Lys[N-e-(N-a-Palmitoyl-g-glutamyl)]; (31)..(31) N-terminal)” was run?
Answer: 7 days

Question: For “2G2 series 9: disulfide-linked homodimer of monomer SEQ ID NO: 9 (HAEGTFTSDVCSYLEGQAAXEFIAWLVRGRG; disulfide-linked homodimer; Sequence is synthesized; (20)..(20) Xaa is 26Lys[N-e-(N-a-oleoyl-L-g-glutamyl)]; (31)..(1) C-terminal)”, which “Hypoglycemic duration” value is on record?
Answer: 5 days

Question: With “2G2 series 16: disulfide-linked homodimer of monomer SEQ ID NO: 16 (chain 1 H[bAib]EGTFTSDVCSYLEGQAAKEFIAWLVR[bAib]R; chain 2 H[bAib]EGTFTSDVCSYLEGQAAKEFIAWLVR[bAib]R; disulfide I:11-II:11 (inferred); not fully specified; reading uncertain)” as the substance, how does the “Hypoglycemic duration” value read?
Answer: 4 days

Question: “2G2 series 17: disulfide-linked homodimer of monomer SEQ ID NO: 17 (chain 1 H[bAib]EGTFTSDVCSYLEGQAAKEFIAWLVK[bAib]R-NH2; chain 2 H[bAib]EGTFTSDVCSYLEGQAAKEFIAWLVK[bAib]R-NH2; disulfide I:11-II:11 (inferred); not fully specified; reading uncertain; also: disulfide-linked homodimer)” was tested. Which “Hypoglycemic duration” value did it give?
Answer: 4 days

Question: With “2G2 series 19: disulfide-linked homodimer of monomer SEQ ID NO: 19 (chain 1 H[βAla]EGTFTSDVCSYLEGQAAKEFIAWLVR[βAla]R; chain 2 H[βAla]EGTFTSDVCSYLEGQAAKEFIAWLVR[βAla]R; disulfide I:11-II:11 (inferred); not fully specified (C-terminus))” as the substance, how does the “Hypoglycemic duration” value read?
Answer: 3 days

Question: “2G3 series 21: disulfide-linked homodimer of monomer SEQ ID NO: 21 (HAEGTFTSDVSCYLEGQAAXEFIAWLVRGRG; disulfide-linked homodimer; Sequence is synthesized; (20)..(20) Xaa is 26Lys[N-e-(N-a-oleoyl-L-g-glutamyl)]; (31)..(31) C-terminal)” was tested. Which “Hypoglycemic duration” value did it give?
Answer: 14 days

Question: “2G3 series 22: disulfide-linked homodimer of monomer SEQ ID NO: 22 (HAEGTFTSDVSCYLEGQAAXEFIAWLVRGRG; not fully specified; disulfide-linked homodimer; Sequence is synthesized; (20)..(20) Xaa is 26Lys[N-e-(N-a-palmitoyl-L-g-glutamyl)]; (31)..(31) N-terminal)” was tested. Which “Hypoglycemic duration” value did it give?
Answer: 16 days

Question: How did the “Hypoglycemic duration” value turn out when “2G3 series 23: disulfide-linked homodimer of monomer SEQ ID NO: 23 (HAEGTFTSDVSCYLEGQAAXEFIAWLVRGRG; disulfide-linked homodimer; Sequence is synthesized; (20)..(20) Xaa is 26Lys[N-e-(N-a-oleoyl-L-g-glutamyl)]; (31)..(31) N-terminal)” was run?
Answer: 17 days

Question: With “2G4 series 25: disulfide-linked homodimer of monomer SEQ ID NO: 25 (HAEGTFTSDVCSYLEGQAAXEFIAWLVRGRG; not fully specified; disulfide-linked homodimer; Sequence is synthesized; (20)..(20) Xaa is 26Lys[N-e-(N-a-palmitoyl-L-g-glutamyl)]; (31)..(31) N-terminal)” as the substance, how does the “Hypoglycemic duration” value read?
Answer: 14 days

Question: Which “Hypoglycemic duration” value does the source give for “2G4 series 26: disulfide-linked homodimer of monomer SEQ ID NO: 26 (HAEGTFTSDVCSYLEGQAAXEFIAWLVRGRG; not fully specified; disulfide-linked homodimer; Sequence is synthesized; (20)..(20) Xaa is 26Lys[N-e-(N-a-oleoyl-L-g-glutamyl)]; (31)..(31) C-terminal)” here?
Answer: 12 days

Question: For “2G4 series 27: disulfide-linked homodimer of monomer SEQ ID NO: 27 (HAEGTFTSDVCSYLEGQAAXEFIAWLVRGRG; not fully specified; disulfide-linked homodimer; Sequence is synthesized; (20)..(20) Xaa is 26Lys[N-e-(N-a-oleoyl-L-g-glutamyl)]; (31)..(31) N-terminal)”, which “Hypoglycemic duration” value is on record?
Answer: 15 days

Question: Which “Hypoglycemic duration” value does the source give for “2G4 series 30: disulfide-linked homodimer of monomer SEQ ID NO: 30 (HXEGTFTSDVCSYLEGQAAXEFIAWLVRGRG; not fully specified; disulfide-linked homodimer; Sequence is synthesized; (2)..(2) Xaa is bAib; (20)..(20) Xaa is 26Lys[N-e-(N-a-oleoyl-L-g-glutamyl)]; (31)..(31) N-terminal)” here?
Answer: 16 days

Question: How did the “Hypoglycemic duration” value turn out when “2G4 series 31: disulfide-linked homodimer of monomer SEQ ID NO: 31 (HXEGTFTSDVCSYLEGQAAXEFIAWLVRGRG; not fully specified; disulfide-linked homodimer; Sequence is synthesized; (2)..(2) Xaa is bAla; (20)..(20) Xaa is 26Lys[N-e-(N-a-oleoyl-L-g-glutamyl)]; (31)..(31) N-terminal)” was run?
Answer: 15 days

Question: For “2G4 series 32: disulfide-linked homodimer of monomer SEQ ID NO: 32 (HAEGTFTSDVSCYLEGQAAXEFIAWLVRGRG; not fully specified; disulfide-linked homodimer; Sequence is synthesized; (20)..(20) Xaa is 26Lys[N-e-(N-a-oleoyl-L-g-glutamyl)]; (31)..(31) C-terminal)”, which “Hypoglycemic duration” value is on record?
Answer: 13 days

Question: With “2G4 series 33: disulfide-linked homodimer of monomer SEQ ID NO: 33 (HAEGTFTSDVSCYLEGQAAXEFIAWLVRGRG; not fully specified; disulfide-linked homodimer; Sequence is synthesized; (20)..(20) Xaa is 26Lys[N-e-(N-a-oleoyl-L-g-glutamyl)]; (31)..(31) N-terminal)” as the substance, how does the “Hypoglycemic duration” value read?
Answer: 16 days

Question: For “2G4 series 34: disulfide-linked homodimer of monomer SEQ ID NO: 34 (HAEGTFTSDVSCYLEGQAAXEFIAWLVRGRG; not fully specified; disulfide-linked homodimer; Sequence is synthesized; (20)..(20) Xaa is 26Lys[N-e-(N-a-palmitoyl-L-g-glutamyl)]; (31)..(31) C-terminal)”, which “Hypoglycemic duration” value is on record?
Answer: 13 days

Question: How did the “Hypoglycemic duration” value turn out when “2G4 series 35: disulfide-linked homodimer of monomer SEQ ID NO: 35 (HAEGTFTSDVSCYLEGQAAXEFIAWLVRGRG; not fully specified; disulfide-linked homodimer; Sequence is synthesized; (20)..(20) Xaa is 26Lys[N-e-(N-a-palmitoyl-L-g-glutamyl)]; (31)..(31) N-terminal)” was run?
Answer: 15 days

Question: How did the “Hypoglycemic duration” value turn out when “2G4 series 38: disulfide-linked homodimer of monomer SEQ ID NO: 38 (HXEGTFTSDVSCYLEGQAAXEFIAWLVRGRG; disulfide-linked homodimer; Sequence is synthesized; (2)..(2) Xaa is bAib; (20)..(20) Xaa is 26Lys[N-e-(N-a-oleoyl-L-g-glutamyl)]; (31)..(31) N-terminal)” was run?
Answer: 17 days

Question: With “2G4 series 39: disulfide-linked homodimer of monomer SEQ ID NO: 39 (HXEGTFTSDVSCYLEGQAAXEFIAWLVRGRG; disulfide-linked homodimer; Sequence is synthesized; (2)..(2) Xaa is bAla; (20)..(20) Xaa is 26Lys[N-e-(N-a-oleoyl-L-g-glutamyl)]; (31)..(31) N-terminal)” as the substance, how does the “Hypoglycemic duration” value read?
Answer: 16 days

Question: For “2G5 series 40: disulfide-linked homodimer of monomer SEQ ID NO: 40 (HAEGTFTSDVSCYLEGQAAXEFIAWLVXGRG; disulfide-linked homodimer; Sequence is synthesized; (20)..(20) Xaa is 26Lys[N-e-(N-a-palmitoyl-L-g-glutamyl)]; (28)..(28) Xaa is 26Lys[N-e-(N-a-palmitoyl-L-g-glutamyl)]; (31)..(31) C-terminal)”, which “Hypoglycemic duration (days)” value is on record?
Answer: 3 (2G5 peptide) days

Question: “2G5 series 41: disulfide-linked homodimer of monomer SEQ ID NO: 41 (HAEGTFTSDVSCYLEGQAAXEFIAWLVXGRG; disulfide-linked homodimer; Sequence is synthesized; (20)..(20) Xaa is 26Lys[N-e-(N-a-palmitoyl-L-g-glutamyl)]; (28)..(28) Xaa is 26Lys[N-e-(N-a-palmitoyl-L-g-glutamyl)]; (31)..(31) N-terminal)” was tested. Which “Hypoglycemic duration” value did it give?
Answer: 5 days

Question: Which “Hypoglycemic duration” value does the source give for “2G5 series 43: disulfide-linked homodimer of monomer SEQ ID NO: 43 (HXEGTFTSDVSCYLEGQAAXEFIAWLVXGRG; disulfide-linked homodimer; Sequence is synthesized; (2)..(2) Xaa is bAib; (20)..(20) Xaa is 26Lys[N-e-(N-a-palmitoyl-L-g-glutamyl)]; (28)..(28) Xaa is 26Lys[N-e-(N-a-palmitoyl-L-g-glutamyl)]; (31)..(31) N-terminal)” here?
Answer: 7 days
